Source: patent US8278469B2, “17-hydroxy-17-pentafluoroethyl-estra-4,9(10)-dien-11-aryl derivatives, method of production thereof and use thereof for the treatment of diseases” (Bayer Pharma Aktiengesellschaft, priority 2009, dated 2012)
Like-named read-outs stand apart in the source and are kept apart here.

How the values were obtained:
[1] = biological target: T1, human progesterone receptor A (PR-A) (Homo sapiens, UniProt P06401); experiment: Progesterone receptor-antagonistic action in stable transfectants of SK-N-MC cells with human PR-A and MTV-LUC reporter; assay type: cell-based; settings: for Emax: read-out: Progesterone receptor A (PR-A) Efficacy
T1 construct: expressed in transfected cells; host or cells: SK-N-MC human neuroblastoma cells, stably transfected with pRChPR-A-neo and pMMTV-LUC
T1 sequence (P06401 1-769 isoform P06401-2): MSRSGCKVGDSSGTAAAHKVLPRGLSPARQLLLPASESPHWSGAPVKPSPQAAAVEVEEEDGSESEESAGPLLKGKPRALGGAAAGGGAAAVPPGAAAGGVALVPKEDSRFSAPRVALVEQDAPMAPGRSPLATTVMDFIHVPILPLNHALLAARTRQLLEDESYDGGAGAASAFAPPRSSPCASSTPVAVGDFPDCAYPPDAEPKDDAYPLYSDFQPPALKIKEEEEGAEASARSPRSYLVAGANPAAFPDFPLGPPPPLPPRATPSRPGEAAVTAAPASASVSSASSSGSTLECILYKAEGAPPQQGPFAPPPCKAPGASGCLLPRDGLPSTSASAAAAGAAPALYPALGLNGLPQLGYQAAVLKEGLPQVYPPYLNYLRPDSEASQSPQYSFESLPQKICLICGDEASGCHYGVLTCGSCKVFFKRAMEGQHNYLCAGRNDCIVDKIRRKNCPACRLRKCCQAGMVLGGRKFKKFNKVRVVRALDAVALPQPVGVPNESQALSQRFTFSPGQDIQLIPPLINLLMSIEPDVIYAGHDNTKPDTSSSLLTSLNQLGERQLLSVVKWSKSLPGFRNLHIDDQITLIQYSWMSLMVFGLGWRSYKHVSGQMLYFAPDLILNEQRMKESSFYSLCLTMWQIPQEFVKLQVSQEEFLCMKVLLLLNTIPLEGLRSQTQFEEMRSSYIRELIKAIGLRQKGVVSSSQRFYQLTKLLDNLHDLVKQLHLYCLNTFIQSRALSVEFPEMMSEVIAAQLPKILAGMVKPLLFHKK
Description: (§1) Progesterone Receptor-Antagonistic Action in Stable Transfectants of Human Neuroblastoma Cells (SK-N-MC Cells) with the Human Progesterone A or Progesterone B Receptor and an MTV-LUC Reporter Construct
(§2) SK-N-MC cells (human neuroblastoma cells), which have been stably transfected with plasmids, which express the human progesterone receptor B (pRChPR-B-neo) or the human progesterone receptor A (pRChPR-A-neo) and a reporter construct (pMMTV-LUC), were incubated for 24 hours either in the absence (negative control) or in the presence of increasing amounts of the respective test compound (0.01 nmol/l, 0.1 nmol/l, 1 nmol/l, 10 nmol/l, 100 nmol/l and 1 μmol/l), in order to determine the agonistic efficacy. As positive control of reporter gene induction, the cells were treated with the synthetic gestagen promegestone (0.01 nmol/l, 0.1 nmol/l, 1 nmol/l, 10 nmol/l, 100 nmol/l and 1 μmol/l). For determination of the antagonistic activity, the cells were treated with 0.1 nmol/l promegestone and additionally with increasing amounts of the respective test compound (0.01 nmol/l, 0.1 nmol/l, 1 nmol/l, 10 nmol/l, 100 nmol/l and 1 μmol/l). The activity of the LUC reporter gene (LUC=luciferase) was determined in the cell lysates and was measured as RLU (relative light units). All measured values are given as percentage efficacy and as EC50 or IC50 concentrations.
(§3) 11β-(4-Acetylphenyl)-20,20,21,21,21-pentafluoro-17-hydroxy-19-nor-17α-pregna-4,9-dien-3-one and 20,20,21,21,21-pentafluoro-17-hydroxy-11β-[4-(hydroxyacetyl)phenyl]-19-nor-17α-pregna-4,9-dien-3-one, very potent and therefore preferred examples from WO98/34947 and WO2008/058767, were tested as comparative compounds along with the test compound.

[2] = biological target: T2, human progesterone receptor B (PR-B) (Homo sapiens, UniProt P06401); experiment: Progesterone receptor-antagonistic action in stable transfectants of SK-N-MC cells with human PR-B and MTV-LUC reporter; assay type: cell-based; settings: for Emax: read-out: Progesterone receptor B (PR-B) Efficacy
T2 construct: expressed in transfected cells; host or cells: SK-N-MC human neuroblastoma cells, stably transfected with pRChPR-B-neo and pMMTV-LUC
T2 sequence (P06401 1-933): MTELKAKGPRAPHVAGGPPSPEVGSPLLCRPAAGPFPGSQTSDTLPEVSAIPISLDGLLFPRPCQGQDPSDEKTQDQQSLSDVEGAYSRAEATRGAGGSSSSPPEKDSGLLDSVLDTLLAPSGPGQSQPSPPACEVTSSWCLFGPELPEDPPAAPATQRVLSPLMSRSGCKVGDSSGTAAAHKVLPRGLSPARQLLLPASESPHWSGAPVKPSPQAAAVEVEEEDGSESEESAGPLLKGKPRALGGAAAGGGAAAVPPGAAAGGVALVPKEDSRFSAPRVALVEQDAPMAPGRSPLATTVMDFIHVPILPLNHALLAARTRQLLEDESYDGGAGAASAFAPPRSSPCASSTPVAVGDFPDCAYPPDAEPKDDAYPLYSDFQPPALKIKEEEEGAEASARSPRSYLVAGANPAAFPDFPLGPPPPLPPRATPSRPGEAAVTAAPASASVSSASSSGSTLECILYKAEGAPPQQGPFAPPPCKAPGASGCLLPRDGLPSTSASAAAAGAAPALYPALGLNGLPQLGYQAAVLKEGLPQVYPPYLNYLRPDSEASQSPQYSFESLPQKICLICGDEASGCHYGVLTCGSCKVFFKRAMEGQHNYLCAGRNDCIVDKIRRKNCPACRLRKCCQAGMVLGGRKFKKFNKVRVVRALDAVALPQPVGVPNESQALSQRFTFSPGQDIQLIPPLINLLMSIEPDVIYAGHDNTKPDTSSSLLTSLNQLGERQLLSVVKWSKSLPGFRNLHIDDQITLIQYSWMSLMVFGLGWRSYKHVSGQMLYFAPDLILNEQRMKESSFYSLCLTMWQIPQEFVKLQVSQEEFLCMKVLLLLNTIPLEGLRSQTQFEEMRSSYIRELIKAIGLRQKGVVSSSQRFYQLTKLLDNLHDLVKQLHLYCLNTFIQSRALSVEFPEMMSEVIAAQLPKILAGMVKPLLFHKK
Description: as §1, §2, §3

[3] = antagonistic activity against 0.1 nmol/l promegestone, SK-N-MC cells, 24 hours, LUC reporter, read-out: Progesterone receptor A (PR-A) Potency IC50
[4] = antagonistic activity against 0.1 nmol/l promegestone, SK-N-MC cells, 24 hours, LUC reporter, read-out: Progesterone receptor B (PR-B) Potency IC50
[5] = antagonistic efficacy against 0.1 nmol/l promegestone, SK-N-MC cells, 24 hours

| IC50 [1, 3] [nM] | Emax [1, 5] [%] | Emax [2, 5] [%] | SMILES | Emax ([1]; SK-N-MC, 24 h) [%] | Emax ([2]; SK-N-MC, 24 h) [%] | IC50 [2, 4] [nM] | IC50 [1] [nM] | IC50 [2] [nM] |
| --- | --- | --- | --- | --- | --- | --- | --- | --- |
| 0.01 | 100 | 100 | Cc1ccc(S(=O)(=O)N=S(C)(=O)c2ccc(-c3ccc([C@H]4C[C@@]5(C)C(CC[C@@]5(O)C(F)(F)C(F)(F)F)C5CCC6=CC(=O)CCC6=C54)cc3)cc2)cc1 (mixture of isomers) [Example 11, N-[{4′-[(11β,17β)-17-hydroxy-3-oxo-17-(pentafluoroethyl)estra-4,9-dien-11-yl]biphenyl-4-yl}(RS)(methyl)oxido-λ^6-sulphanylidene]-4-methylbenzene sulphonamide] | – | – | 0.01 | – | – |
| – | 100 | 100 | CC(=O)c1ccc(C2CC3(C)C(CCC3(O)C(F)(F)C(F)(F)F)C3CCC4=CC(=O)CCC4=C23)cc1 (stereo not drawn) [11β-(4-Acetylphenyl)-20,20,21,21,21-pentafluoro-17-hydroxy-19-nor-17α-pregna-4,9-dien-3-one, reference compound] | – | – | – | – | – |
| – | 100 | 100 | CCSc1ccc([C@H]2C[C@@]3(C)C(CC[C@@]3(O)C(F)(F)C(F)(F)F)C3CCC4=CC(=O)CCC4=C32)cc1 (stereo partly drawn) [Example 2, (11β,17β)-11-[4-(ethylsulphanyl)phenyl]-17-hydroxy-17-(pentafluoroethyl)estra-4,9-dien-3-one] | – | – | – | – | – |
| 0.1 | 100 | 100 | CCS(=O)(=O)c1ccc([C@H]2C[C@@]3(C)C(CC[C@@]3(O)C(F)(F)C(F)(F)F)C3CCC4=CC(=O)CCC4=C32)cc1 (stereo partly drawn) [Example 5, (11β,17β)-11-[4-(ethylsulphonyl)phenyl]-17-hydroxy-17-(pentafluoroethyl)estra-4,9-dien-3-one] | – | – | 0.09 | – | – |
| 0.2 | 100 | 100 | C[C@]12C[C@H](c3ccc(SCc4ccccc4)cc3)C3=C4CCC(=O)C=C4CCC3C1CC[C@@]2(O)C(F)(F)C(F)(F)F (stereo partly drawn) [Example 6, (11β,17β)-11-[4-(benzylsulphanyl)phenyl]-17-hydroxy-17-(pentafluoroethyl)estra-4,9-dien-3-one] | – | – | 0.23 | – | – |

The next lines start with the compound.

| SMILES | IC50 [1, 3] [nM] | Emax [1, 5] [%] | Emax [2, 5] [%] | Emax ([1]; SK-N-MC, 24 h) [%] | Emax ([2]; SK-N-MC, 24 h) [%] | IC50 [2, 4] [nM] | IC50 [1] [nM] | IC50 [2] [nM] |
| --- | --- | --- | --- | --- | --- | --- | --- | --- |
| C[S+]([O-])c1ccc([C@H]2C[C@@]3(C)[C@@H](CC[C@@]3(O)C(F)(F)C(F)(F)F)[C@@H]3CCC4=CC(=O)CCC4=C32)cc1 (mixture of isomers) [Example 3, (11β,17β)-17-Hydroxy-11-{4-[(RS)-methylsulphinyl]phenyl}-17-(pentafluoroethyl)estra-4,9-dien-3-one] | 0.11 | – | – | 100 | 100 | 0.12 | – | – |
| Cc1ccc(S(=O)(=O)N=S(C)(=O)c2ccc([C@H]3C[C@@]4(C)C(CC[C@@]4(O)C(F)(F)C(F)(F)F)C4CCC5=CC(=O)CCC5=C43)cc2)cc1 (mixture of isomers) [Example 7, N-[{4-[(11β,17β)-17-hydroxy-3-oxo-17-(pentafluoroethyl)estra-4,9-dien-11-yl]phenyl}(RS)(methyl)oxido-λ^6-sulphanylidene]-4-methylbenzene sulphonamide] | – | 100 | 100 | – | – | – | 1 | 0.8 |
| C[C@]12C[C@H](c3ccc(C(=O)CO)cc3)C3=C4CCC(=O)C=C4CC[C@H]3[C@@H]1CC[C@@]2(O)C(F)(F)C(F)(F)F [20,20,21,21,21-pentafluoro-17-hydroxy-11β-[4-(hydroxyacetyl)phenyl]-19-nor-17α-pregna-4,9-dien-3-one, reference compound] | – | – | – | 100 | 100 | – | – | – |
| CSc1ccc([C@H]2C[C@@]3(C)[C@@H](CC[C@@]3(O)C(F)(F)C(F)(F)F)[C@@H]3CCC4=CC(=O)CCC4=C32)cc1 [Example 1, (11β,17β)-17-hydroxy-11-[4-(methylsulphanyl)phenyl]-17-(pentafluoroethyl)estra-4,9-dien-3-one] | – | – | – | 100 | 100 | 0.012 | – | – |
| C[C@]12C[C@H](c3ccc(S(C)(=N)=O)cc3)C3=C4CCC(=O)C=C4CCC3C1CC[C@@]2(O)C(F)(F)C(F)(F)F (stereo partly drawn) [Example 8, (11β,17β)-17-Hydroxy-11-[4-(RS-methylsulphonimidoyl)phenyl]-17-(pentafluoroethyl)estra-4,9-dien-3-one] | 0.9 | – | – | 100 | 100 | 0.9 | – | – |
